# Read-outs that look alike come from different tables or passages of the source.
# Assays:
# [1] = biological target: T1, human type 1 glycine transporter (GlyT1) (Homo sapiens, UniProt P48067); assay: Glycine uptake inhibition experiment ([3H] glycine uptake in T98G cells); format: cell-based; settings: [3H] glycine 250 nM, read-out: IC50 (glycine uptake inhibiting activity)
# T1 construct: Used in the experiment were T98G cells (glioma cells) developing a human type 1 glycine transporter (GlyT1); endogenous in cells; host or cells: T98G human glioma cells
# T1 sequence (P48067 1-706): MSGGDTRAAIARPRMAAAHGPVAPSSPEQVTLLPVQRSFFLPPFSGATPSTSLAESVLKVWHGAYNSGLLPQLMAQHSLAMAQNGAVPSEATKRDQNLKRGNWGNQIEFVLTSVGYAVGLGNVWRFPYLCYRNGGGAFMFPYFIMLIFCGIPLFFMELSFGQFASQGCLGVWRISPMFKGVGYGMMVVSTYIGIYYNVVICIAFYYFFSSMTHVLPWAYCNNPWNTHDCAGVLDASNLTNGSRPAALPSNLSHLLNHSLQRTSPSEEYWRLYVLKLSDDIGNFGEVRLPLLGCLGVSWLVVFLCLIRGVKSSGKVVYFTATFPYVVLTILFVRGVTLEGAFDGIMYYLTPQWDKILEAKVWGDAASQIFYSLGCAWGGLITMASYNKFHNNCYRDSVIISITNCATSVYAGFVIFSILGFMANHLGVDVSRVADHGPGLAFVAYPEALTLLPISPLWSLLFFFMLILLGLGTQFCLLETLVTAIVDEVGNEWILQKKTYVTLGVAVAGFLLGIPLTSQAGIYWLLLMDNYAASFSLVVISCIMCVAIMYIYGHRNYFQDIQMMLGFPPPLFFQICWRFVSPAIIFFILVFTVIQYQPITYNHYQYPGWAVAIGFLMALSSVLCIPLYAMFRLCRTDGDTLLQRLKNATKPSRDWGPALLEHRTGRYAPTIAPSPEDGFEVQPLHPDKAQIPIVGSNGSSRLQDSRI
# Description: A glycine uptake inhibition experiment was conducted in accordance with the method described in Neuron, 8, 927-935, 1992. Used in the experiment were T98G cells (glioma cells) developing a human type 1 glycine transporter (GlyT1). The T98G cells were seeded in a 96-well plate at a density of 2.0×10^4 cells per well and cultured overnight in a CO2 incubator. The test substance was first dissolved in a 100% DMSO solution and then dissolved in a 10 mM HEPES buffer solution (pH 7.4) supplemented with 150 mM sodium chloride, 1 mM calcium chloride, 5 mM potassium chloride, 1 mM magnesium chloride, 10 mM glucose, and 0.2% bovine serum albumin. After removing the cell culture medium, the test substance was subjected to a 10-min pretreatment. Thereafter, the test substance and [^3H] glycine (final concentration: 250 nM) were added to the cells and reaction was performed at room temperature for 15 minutes. After the end of the reaction, the extracellular fluid was aspirated with a manifold to remove the excess marker glycine present outside of the cells; thereafter, the cells were lysed with an aqueous solution of 0.5 M sodium hydroxide. The glycine content in the cells was determined by measuring the radioactivity in the cell lysate with a liquid scintillation counter. With the amount of glycine uptake in the presence of 10 μM ALX5407 being referred to as the nonspecific uptake, the amount of specific uptake was calculated by subtracting the amount of nonspecific uptake from the total amount of uptake in the absence of 10 μM ALX5407. In addition, glycine uptake inhibiting activity (IC50) was calculated from an inhibition curve for the concentration of the test substance ranging from 10^−9 to 10^−5 M.
# P-gp (Human MDR1) = biological target: T2, P-gp (Human MDR1) (Homo sapiens, UniProt P08183); assay: Test for recognizability of P-gp substrate (LLC-GA5-COL 300 cells); format: in vitro ADME; settings: 10 μM, criteria of Nature Reviews Drug Discovery (2010) 9, 215-236
# T2 construct: expressed in transfected cells; host or cells: LLC-GA5-COL 300 (LLC-PK1 pig kidney epithelial cells expressing human MDR1)
# T2 sequence (P08183 whole entry): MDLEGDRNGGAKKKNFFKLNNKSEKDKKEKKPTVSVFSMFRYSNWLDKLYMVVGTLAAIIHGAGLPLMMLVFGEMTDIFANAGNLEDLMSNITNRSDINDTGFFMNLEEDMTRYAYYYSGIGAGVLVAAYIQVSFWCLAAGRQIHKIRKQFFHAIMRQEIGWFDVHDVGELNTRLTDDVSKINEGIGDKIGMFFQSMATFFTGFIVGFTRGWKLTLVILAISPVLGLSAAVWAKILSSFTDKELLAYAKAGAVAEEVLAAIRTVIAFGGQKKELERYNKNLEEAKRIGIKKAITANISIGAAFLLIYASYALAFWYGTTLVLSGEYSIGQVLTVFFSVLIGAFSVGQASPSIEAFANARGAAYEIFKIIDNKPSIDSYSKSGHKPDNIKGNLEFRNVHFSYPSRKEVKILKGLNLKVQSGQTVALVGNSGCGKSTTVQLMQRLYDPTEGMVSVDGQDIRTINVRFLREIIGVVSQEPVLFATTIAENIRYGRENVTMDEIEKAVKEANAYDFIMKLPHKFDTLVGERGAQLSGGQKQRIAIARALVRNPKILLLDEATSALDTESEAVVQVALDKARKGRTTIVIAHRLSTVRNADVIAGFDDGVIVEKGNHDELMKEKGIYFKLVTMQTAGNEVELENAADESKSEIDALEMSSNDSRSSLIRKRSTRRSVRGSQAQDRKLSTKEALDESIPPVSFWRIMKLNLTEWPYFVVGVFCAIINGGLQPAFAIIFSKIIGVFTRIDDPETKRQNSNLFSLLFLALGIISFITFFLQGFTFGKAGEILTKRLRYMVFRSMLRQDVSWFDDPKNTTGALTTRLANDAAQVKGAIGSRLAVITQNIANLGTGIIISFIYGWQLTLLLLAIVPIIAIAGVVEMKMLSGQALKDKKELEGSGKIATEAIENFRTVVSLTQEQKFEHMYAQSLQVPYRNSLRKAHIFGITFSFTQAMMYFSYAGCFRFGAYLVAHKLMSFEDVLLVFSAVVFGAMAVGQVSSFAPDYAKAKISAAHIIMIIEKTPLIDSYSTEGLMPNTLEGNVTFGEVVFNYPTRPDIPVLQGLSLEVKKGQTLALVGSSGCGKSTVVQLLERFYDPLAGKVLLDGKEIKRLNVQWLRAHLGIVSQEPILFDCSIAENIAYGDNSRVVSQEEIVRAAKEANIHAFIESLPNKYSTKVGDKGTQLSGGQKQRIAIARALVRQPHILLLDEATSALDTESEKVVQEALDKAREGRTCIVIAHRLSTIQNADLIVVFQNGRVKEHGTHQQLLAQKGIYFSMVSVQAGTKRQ
# Text: In order that drugs acting on the central nervous system will develop their efficacy, their passage from the blood to the brain is generally important. While various efflux transporters are present at the blood-brain barrier to control this passage of drugs, P-glylcoprotein (P-gp) is a typical example and inhibits the passage to the brain of any drugs that serve as the substrate for P-gp. Therefore, in the development of pharmaceuticals, nonrecognizability of a candidate drug as the substrate for P-gp is the key to its passage to the brain.
# A test for recognizability of P-gp substrate was performed in accordance with a modified version of the methods described in J. Pharmacol. Exp. Ther. (1992) Vol. 263, No. 2, 840-845 and J. Biol. Chem. (1992) Vol. 267, No. 34, 24248-24252. […] A solution of an assay compound (a DMSO solution of the compound as diluted with HBSS and adjusted to a final concentration of 10 μM) was added to the donor side of the LLC-GA5-COL 300 cells and a prescribed amount of HBSS was collected from the acceptor side at given time intervals and the concentration of the assay compound in the collected sample was measured by LC-MS/MS. […]
# [2] = Membrane permeability experiment (PAMPA Evolution); format: in vitro ADME; settings: artificial lipid GIT-0, pH 4.0, 5.0, 6.2 and 7.4, marker metoprolol
# Description: In the development of pharmaceuticals, membrane permeability is an important factor to consider from the viewpoint of relationship with the bodily absorption of a medicament to be administered orally. Compounds having high membrane permeability are expected to feature satisfactory absorption by the intestinal tract (see Pharmaceutical Research (2002) Vol. 19, No. 7, 921-925.)
# A membrane permeability test was conducted using PAMPA Evolution™ (pION INC.) in accordance with a modified version of the recommended protocol of pION INC. To be more specific, solutions of an assay compound (i.e., a DMSO solution of the compound as diluted by being added to system solutions that had been adjusted to prescribed pHs (4.0, 5.0, 6.2, and 7.4)) were prepared and added to the lower compartment (donor) of a sandwich plate having a lipid bilayer membrane formed of an artificial lipid (GIT-0). An acceptor sink buffer was added to the upper compartment (acceptor) and after the lapse of a prescribed period, the cumulative permeation of the compound was measured by performing UV spectroscopy on the solutions in the donor and acceptor, and the membrane permeability coefficient Pe (×10^−6 cm/sec) was calculated to assay the membrane permeability of the compound.
SMILES,"IC50 ([1]; 15 min, room temperature)",IC50 [1],recognizability as P-gp substrate (efflux ratio basal→apical / apical→basal) (P-gp (Human MDR1)),membrane permeability coefficient Pe compared with metoprolol [2]
Cn1cnc(C(=O)N(Cc2ccc(F)c(OC(F)(F)F)c2)C2CCOCC2)n1 [Compound 49],7.4 nM,< 100 nM,not recognizable as the substrate for P-gp,–
Cn1cnc(C(=O)N(Cc2ccc(F)c(-c3ccccc3)c2)C2CCOCC2)n1 [Compound 59],12.6 nM,< 100 nM,–,higher Pe values than the high permeability marker compound metoprolol
Cn1cnc(C(=O)N(Cc2ccc(F)c(-c3cccc(CCO)c3)c2)C2CCOCC2)c1 [Compound 99],9 nM,< 100 nM,–,higher Pe values than the high permeability marker compound metoprolol
Cn1cnc(C(=O)N(Cc2cccc(C(F)(F)F)c2)C2CCOCC2)c1 [Compound 16],9.7 nM,< 100 nM,–,higher Pe values than the high permeability marker compound metoprolol
O=C(c1cn(C2CC2)cn1)N(Cc1cccc(OC(F)(F)F)c1)C1CCOCC1 [Compound 12],–,≥ 1000 nM,–,higher Pe values than the high permeability marker compound metoprolol
Cn1cnc(C(=O)N(Cc2ccc(F)c(Cl)c2)C2CCOCC2)n1 [Compound 34],–,< 100 nM,–,higher Pe values than the high permeability marker compound metoprolol
Cn1cnc(C(=O)N(Cc2ccc(F)c(C(F)(F)F)c2)C2CCOCC2)n1 [Compound 35],40.3 nM,< 100 nM,–,higher Pe values than the high permeability marker compound metoprolol
Cn1cnc(C(=O)N(Cc2ccc(F)c(-c3cccc(C(F)(F)F)c3)c2)C2CCOCC2)n1 [Compound 95],18.1 nM,< 100 nM,–,higher Pe values than the high permeability marker compound metoprolol
Cn1cnc(C(=O)N(Cc2ccc(F)c(-c3ccc(F)cc3)c2)C2CCOCC2)n1 [Compound 79],32 nM,< 100 nM,–,higher Pe values than the high permeability marker compound metoprolol
CCOc1cccc(-c2cc(CN(C(=O)c3ncn(C)n3)C3CCOCC3)ccc2F)c1 [Compound 91],28.9 nM,< 100 nM,–,higher Pe values than the high permeability marker compound metoprolol
Cn1cnc(C(=O)N(Cc2cccc(Cl)c2)C2CCOCC2)c1 [Compound 15],13.5 nM,< 100 nM,–,higher Pe values than the high permeability marker compound metoprolol
Cn1cnc(C(=O)N(Cc2ccc(F)c(-c3ccc(OC(F)(F)F)cc3)c2)C2CCOCC2)c1 [Compound 100],6 nM,< 100 nM,–,higher Pe values than the high permeability marker compound metoprolol
Cn1cnc(C(=O)N(Cc2cccc(OC(F)(F)F)c2)CC2CCOCC2)c1 [Compound 2],34.5 nM,< 100 nM,–,higher Pe values than the high permeability marker compound metoprolol
Cn1cnc(C(=O)N(Cc2ccc(F)c(-c3ccc(F)cc3)c2)C2CCOCC2)c1 [Compound 103],8.2 nM,< 100 nM,–,higher Pe values than the high permeability marker compound metoprolol
Cn1cnc(C(=O)N(Cc2ccc(F)c(-c3cccc(OC(F)(F)F)c3)c2)C2CCOCC2)n1 [Compound 87],5.4 nM,< 100 nM,–,higher Pe values than the high permeability marker compound metoprolol
Cn1cnc(C(=O)N(Cc2ccc(F)c(-c3ccc(OC(F)(F)F)cc3)c2)C2CCOCC2)n1 [Compound 89],22.4 nM,< 100 nM,–,higher Pe values than the high permeability marker compound metoprolol
Cn1cnc(C(=O)N(Cc2ccc(F)c(-c3ccc(F)c(Cl)c3)c2)C2CCOCC2)n1 [Compound 86],21.4 nM,< 100 nM,–,higher Pe values than the high permeability marker compound metoprolol
Cn1cnc(C(=O)N(Cc2ccc(F)c(Cl)c2)C2CCOCC2)c1 [Compound 24],5.9 nM,< 100 nM,–,higher Pe values than the high permeability marker compound metoprolol
Cn1cnc(C(=O)N(C2CCOCC2)C(CO)Cc2cccc(OC(F)(F)F)c2)c1 (stereo not shown) [Compound 109],31.7 nM,< 100 nM,–,higher Pe values than the high permeability marker compound metoprolol
Cn1cnc(C(=O)N(CCc2cccc(OC(F)(F)F)c2)C2CCOCC2)c1 [Compound 70],14.1 nM,< 100 nM,–,higher Pe values than the high permeability marker compound metoprolol
Cn1cnc(C(=O)N(Cc2ccc(F)c(-c3ccc(Cl)cc3)c2)C2CCOCC2)n1 [Compound 60],30.6 nM,< 100 nM,–,higher Pe values than the high permeability marker compound metoprolol
Cn1cnc(C(=O)N(Cc2cccc(-c3ccccc3)c2)C2CCOCC2)n1 [Compound 55],28.7 nM,< 100 nM,–,higher Pe values than the high permeability marker compound metoprolol
